Patent EP0540090A2, “Liquid cleaning compositions” (UNILEVER N.V., priority 1991, dated 1993)
Like-named read-outs stand apart in the source and are kept apart here.

Assays:
[1] = Precursor solubility in the liquid phase (2:1 nonionic surfactant blend Vista NI and Synperonic A3), by GC (TAED) and HPLC (rest)
[2] = Storage stability of precursor and percarbonate in the non-aqueous liquid formulation of Example 1; settings: Example 1 formulation, after storage for 8 weeks at ambient temperature
Procedure: The following formulation containing various types of precursors was tested for percarbonate and precursor stability:

[3] = 2:1 nonionic surfactant combination (Vista NI and Synperonic A3), ambient temperature
[4] = 2:1 nonionic surfactant combination (Vista NI and Synperonic A3), ambient temperature, molar solubility multiplied by number of active groups

| Molecule | % w/w dissolved [1] [% w/w] | mmol% active groups dissolved [1] [mmol%] | stability precursor [2] [% **)] | % w/w dissolved [1, 3] [% w/w] | mmol% active groups dissolved [1, 4] [mmol%] |
| --- | --- | --- | --- | --- | --- |
| 2-(N,N,N-trimethylammonium)ethyl sodium 4-sulphophenyl carbonate [Compound B] | <0.025 | <0.08 | – | – | – |
| C[N+](C)(C)Cc1ccc(C(=O)Oc2ccc(S(=O)(=O)[O-])cc2)cc1 [Compound A, 1-[4-(N,N,N-trimethylammoniummethyl)benzoyloxy] benzene-4-sulphonate] | – | – | 88 | <0.05 | <0.14 |
| C[N+](C)(C)c1ccc(C(=O)Oc2ccc(S(=O)(=O)[O-])cc2)cc1 [Compound E] | – | – | – | <0.01 | <0.03 |
